Molecular target: Human TRPV3 (Homo sapiens (Human), UniProt Q8NET8)
Assay: Screening for TRPV3 antagonist using the 45Calcium uptake assay
Assay type: cell-based
Conditions: 2-APB (500 μM) induced 45Ca uptake, human TRPV3 expressing CHO cells
Text: The illustrative examples of the present invention are screened for TRPV3 activity according to a modified procedure described in Tóth, A., Kedei, N., Wang, Y. and Blumberg, P. M. Life Sciences (2003), 73, 487-498. The screening of the compounds can be carried out by other methods and procedures known to a person skilled in the art. Such screening methods may be found in (a) Hu, H.-Z. et al. J. Biol. Chem. (2004), 279, 35741-35747; (b) Smith, G. D. et al. Nature (2002), 418, 186-190; (c) Peier, A. M. et al. Science (2002), 296, 2046-2049.
Screening for TRPV3 Antagonist Using the ^45Calcium Uptake Assay:
The inhibition of TRPV3 receptor activation was followed as inhibition of 2-aminoethoxydiphenylborate (2-APB) induced cellular uptake of radioactive calcium. Test compounds were dissolved in dimethyl sulfoxide (DMSO) to prepare 20 mM stock solution and then diluted using plain medium with DMEM/F-12 containing 1.8 mM CaCl2 to get desired concentration. Final concentration of DMSO in the reaction was 0.5% (v/v). Human TRPV3 expressing CHO cells were grown in DMEM/F-12 medium with 10% FBS, 1% penicillin-streptomycin solution, 400 μg/ml of G-418. […] Radioactivity in the lysate was measured in Packardt Top count after addition of liquid scintillant. […] IC50 value was calculated from concentration response curve by nonlinear regression analysis using GraphPad PRISM software.

Chain of Human TRPV3 (Q8NET8 whole entry): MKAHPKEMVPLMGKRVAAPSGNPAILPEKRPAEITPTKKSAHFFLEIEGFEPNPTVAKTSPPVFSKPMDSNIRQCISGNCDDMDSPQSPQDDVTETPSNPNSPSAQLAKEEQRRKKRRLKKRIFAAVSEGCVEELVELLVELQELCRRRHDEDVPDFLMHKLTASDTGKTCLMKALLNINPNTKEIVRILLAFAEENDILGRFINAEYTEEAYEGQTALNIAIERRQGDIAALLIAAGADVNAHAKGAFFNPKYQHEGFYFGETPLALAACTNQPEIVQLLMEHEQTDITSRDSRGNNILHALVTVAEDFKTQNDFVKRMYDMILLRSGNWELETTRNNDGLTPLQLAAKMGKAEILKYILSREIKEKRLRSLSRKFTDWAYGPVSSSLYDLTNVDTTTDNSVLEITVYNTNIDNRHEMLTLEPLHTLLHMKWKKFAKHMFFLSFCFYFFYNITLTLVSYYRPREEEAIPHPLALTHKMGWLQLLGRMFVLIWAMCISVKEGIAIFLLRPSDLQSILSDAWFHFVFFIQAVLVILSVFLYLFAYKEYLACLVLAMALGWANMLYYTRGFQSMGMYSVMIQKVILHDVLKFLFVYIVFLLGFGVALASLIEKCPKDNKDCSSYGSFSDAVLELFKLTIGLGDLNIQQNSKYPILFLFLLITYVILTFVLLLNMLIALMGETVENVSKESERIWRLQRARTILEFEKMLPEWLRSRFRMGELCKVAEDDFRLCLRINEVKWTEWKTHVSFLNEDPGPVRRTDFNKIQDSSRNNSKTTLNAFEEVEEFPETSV

COc1cccc(CNC(=O)CC2CC3(CCC3)Oc3ccc(Cl)cc32)c1OC1CCCC1 (stereo not shown) [Example 2, 2-(6-Chloro-3,4-dihydrospiro[chromene-2,1′-cyclobutan]-4-yl)-N-(2-cyclopentyloxy-3-methoxybenzyl)acetamide]
IC50: 725.3 n.M

Source: US8492568B2, “Chromane derivatives as TRPV3 modulators” (Glenmark Pharamceuticals S.A., priority 2008, dated 2013)
